Experimental data published in patent publication US12544373B2, “Treatment of cancer, inflammatory diseases and autoimmune diseases” (Usher III Initiative, Inc., priority 2020, dated 2026).
Values joined by “and” are separate entries in the source; they are usually repeats but may differ in a detail not shown here. Equal values may be shown once. Read-outs that look alike come from different tables or passages of the source.

Key:
[1] = tested on: 10 human tumor cell lines; test: CellTiter-Blue 2D monolayer assay (Example 1), whole panel; format: cell-based
Description: Compound 85 was assessed in 10 human tumor cell lines (see Table 3) for anti-cancer activity in vitro using a CellTiter-Blue® based 2D monolayer assay.
CellTiter-Blue® Cell Viability Assay: Tumor cells were grown at 37° C. in a humidified atmosphere with 5% CO2 in RPMI medium, supplemented with 10% (v/v) fetal calf serum and 50 μg/ml gentamicin (140 μl/well). Cultures were incubated at 37° C. and 5% CO2 in a humidified atmosphere. After 24 hours, 10 μl of Compound 85 was added, and left on the cells for another 72 hours (incubation period). Compound 85 was tested at 5 concentrations (0.003 μM, 0.03 μM, 0.3 μM, 3 μM, and 30 μM) and serially diluted in DMSO, mixed with cell culture medium, and added to the assay plates by using a Tecan Freedom EVO 200 robotic platform. The DMSO concentration was kept constant at 0.3% yip across the assay plate. Every 96 well plate included six DMSO-treated control wells and Compound 85-treated wells in duplicate at 5 concentrations. Viability of cells was quantified using the CellTiter-Blue® cell viability assay (Promega G8081). After incubation of cells, the CellTiter-Blue® reagent was brought to ambient temperature. Next, 20 μl of CellTiter-Blue® reagent were added to each well. After incubation tier up to 4 hours, fluorescence (FU) was measured using the EnSpire® multimode plate reader (Perkin Elmer) ([…]).
Data Evaluation: Sigmoidal concentration-response curves were fitted to the data points (test-versus-control; T/C values) obtained for each tumor model using 4 parameter non-linear curve fit (Charles River DRS Datawarehouse Software). Drug effects are expressed in terms of the percentage of the fluorescence signal, obtained by comparison of the mean signal in the treated wells with the mean signal of the untreated controls (T/C-value [%]) (Table 4). IC50 and IC70 values were reported as relative and absolute IC50 and IC70 values (Table 5). The absolute IC50 and IC70 values reflect the concentration of Compound 85 that achieves T/C=50% and T/C=30%, respectively. The relative IC50 value is the concentration of Compound 85 that gives a response half way between the top and bottom plateau of the sigmoidal concentration-response curve (inflection point of the curve).

[2] = tested on: SXFS Hs 729; test: CellTiter-Blue Cell Viability Assay (Example 2), soft tissue sarcoma; format: cell-based, human; conditions: for T/C %: 72 h
Source text: (§1) The CellTiter-Blue® Cell Viability Assay was used to assess the viability of cells from various cancer cell lines, in the presence or absence of Compound 85 (at different concentrations). This assay provides a homogeneous, fluorometric method for estimating the number of viable cells present in multi-well plates. Viable cells retain the ability to reduce resazurin to resorufin, which is highly fluorescent. […] The fluorescence produced is proportional to the number of viable cells. There is a linear relationship between cell number and fluorescence.
(§2) Cancer cells (see Table 6) were harvested from exponential phase cultures, counted and plated in 96 well flat-bottom microtiter plates, at a cell density 6,000-20,000 cells/well, depending on the cell line's growth rate. The culture medium was supplemented with 10% (v/v) foetal calf serum and 50 μg/mL gentamicin (140 μL/well). Cultures were incubated at 37° C. and 5% CO2 in a humidified atmosphere.
(§3) Compound 85 was serially diluted in DMSO, and five Compound 85 concentrations in half-log increments were used: 0.03 μM, 0.09 μM, 0.30 μM, 1.0 μM, and 3.0 μM. After 24 h, 10 μL of Compound 85 (dissolved in DMSO) or control (DMSO) medium were added, in duplicates, and left on the cells for another 72 h. Compound 85 solutions were added to the assay plates using a Tecan Freedom EVO 200 robotic platform. The DMSO concentration was kept constant at 0.3% v/v across the assay plate.
(§4) After incubation of up to 72 hours, fluorescence (FU) was measured using the EnSpire® multimode plate reader (Perkin Elmer) (excitation λ=570 nm, emission λ=600 nm).
(§5) Cancer cell lines used: Compound 85's anti-cancer effect was tested in 20 human cancer-cell lines representing nine cancer types (Table 6).
(§6) The percentage of viable cells in the presence of Compound 85 (Test condition, T), at different concentrations, are presented in Table 7 and expressed as a percentage of the number of viable cells in the presence of DMSO without Compound 85 (Control condition, C).
(§7) The relative IC50 is determined as the Compound 85 concentration giving a response halfway between the maximum cell viability signal (i.e., a 100% cell viability, no Compound 85 response) and the minimal viability signal (i.e. maximum cell viability inhibition achieved by Compound 85), in a sigmoidal concentration-effect curve.
(§8) The absolute IC50 is determined as the concentration that is associated with a T/C ratio of 50%.

[3] = tested on: SXFS 1301; test: as above; format: cell-based, human; conditions: for T/C %: 72 h
Source text: as §1, §2, §3, §4, §5, §6, §7, §8

[4] = tested on: MAXFTN 401; test: CellTiter-Blue Cell Viability Assay (Example 2), breast; format: cell-based, human; conditions: for T/C %: 72 h
Source text: as §1, §2, §3, §4, §5, §6, §7, §8

[5] = tested on: MAXFTN MDA-MB-453; test: as above; format: cell-based, human; conditions: for T/C %: 72 h
Source text: as §1, §2, §3, §4, §5, §6, §7, §8

[6] = tested on: MAXFHER BT-474; test: as above; format: cell-based, human; conditions: for T/C %: 72 h
Source text: as §1, §2, §3, §4, §5, §6, §7, §8

[7] = tested on: MAXFHER JIMT-1; test: as above; format: cell-based, human; conditions: for T/C %: 72 h
Source text: as §1, §2, §3, §4, §5, §6, §7, §8

[8] = geometric mean over 10 cell lines

CC(C)(O)Cn1nc(-c2ccccc2)c2c(Cl)c(-c3ccccc3)nnc21 [Compound 85]
inhibition of the tumor cell growth ([1]; all cell lines of Table 3): concentration-dependent inhibition
Geometric mean Abs. IC70 [1, 8]: 1258 nM
Geometric mean Rel. IC70 [1, 8]: 1226 nM
IC50 ([1]; geometric mean over 10 cell lines, read-out: Geometric mean Abs. IC50): 950 nM and 948 nM
IC50 ([1]; geometric mean over 10 cell lines, read-out: Geometric mean Rel. IC50): 926 nM
Absolute IC70 [2]: 808 nM
Relative IC70 [2]: 789 nM
T/C % ([2]; 0.03 μM): 99%
T/C % ([2]; 0.095 μM): 99%
T/C % ([2]; 0.3 μM): 99%
T/C % ([2]; 0.95 μM): 13%
T/C % ([2]; 3.0 μM): 7%
IC50 ([2]; read-out: Absolute IC50): 733 nM
IC50 ([2]; read-out: Relative IC50): 724 nM
Absolute IC70 [3]: 570 nM
Relative IC70 [3]: 558 nM
T/C % ([3]; 0.03 μM): 105%
T/C % ([3]; 0.095 μM): 106%
T/C % ([3]; 0.3 μM): 102%
T/C % ([3]; 0.95 μM): 3%
T/C % ([3]; 3.0 μM): 2%
IC50 ([3]; read-out: Absolute IC50): 501 nM
IC50 ([3]; read-out: Relative IC50): 490 nM
Absolute IC70 [4]: 503 nM
Relative IC70 [4]: 500 nM
T/C % ([4]; 0.03 μM): 99%
T/C % ([4]; 0.095 μM): 99%
T/C % ([4]; 0.3 μM): 87%
T/C % ([4]; 0.95 μM): 3%
T/C % ([4]; 3.0 μM): 1%
IC50 ([4]; read-out: Absolute IC50): 429 nM
IC50 ([4]; read-out: Relative IC50): 429 nM
Absolute IC70 [5]: 765 nM
Relative IC70 [5]: 763 nM
T/C % ([5]; 0.03 μM): 101%
T/C % ([5]; 0.095 μM): 97%
T/C % ([5]; 0.3 μM): 101%
T/C % ([5]; 0.95 μM): 3%
T/C % ([5]; 3.0 μM): 1%
IC50 ([5]; read-out: Absolute IC50): 719 nM
IC50 ([5]; read-out: Relative IC50): 717 nM
Absolute IC70 [6]: 1316 nM
Relative IC70 [6]: 1010 nM
T/C % ([6]; 0.3 μM): 99%
T/C % ([6]; 0.95 μM): 46%
T/C % ([6]; 3.0 μM): 17%
IC50 ([6]; read-out: Absolute IC50): 886 nM
IC50 ([6]; read-out: Relative IC50): 766 nM
Absolute IC70 [7]: 957 nM
Relative IC70 [7]: 844 nM
T/C % ([7]; 0.03 μM): 97%
T/C % ([7]; 0.095 μM): 97%
T/C % ([7]; 0.3 μM): 96%
T/C % ([7]; 0.95 μM): 30%
T/C % ([7]; 3.0 μM): 14%
IC50 ([7]; read-out: Absolute IC50): 742 nM
IC50 ([7]; read-out: Relative IC50): 702 nM
